Target: T1, human ICE (IL-1β converting enzyme) (Homo sapiens, UniProt P29466)
T1 sequence (P29466 120-297 limits assumed): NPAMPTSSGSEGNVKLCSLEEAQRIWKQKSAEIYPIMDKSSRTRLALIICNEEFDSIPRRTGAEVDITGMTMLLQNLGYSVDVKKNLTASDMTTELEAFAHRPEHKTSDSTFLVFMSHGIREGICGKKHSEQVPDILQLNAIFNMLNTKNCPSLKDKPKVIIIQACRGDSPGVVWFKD
T1 sequence (P29466 317-404 limits assumed): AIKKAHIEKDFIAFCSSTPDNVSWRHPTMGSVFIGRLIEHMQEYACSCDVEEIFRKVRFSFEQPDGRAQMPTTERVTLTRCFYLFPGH
Test: Assay for IL-1β converting enzyme (ICE) inhibition, fluorogenic substrate Ac-Tyr-Val-Ala-Asp-MCA
Type: biochemical
Settings: human ICE solution, 37° C., fluorescence, read-out: IC50, ICE inhibitory activity
Procedure: (1) Assay for IL-1β converting enzyme
The reaction mixture contains, for example, 20 mM of HEPES-NaOH pH7.4, 10 mM of KOH, 1.5 mM of MgCl2, 0.1 mM of EDTA and 10% glycerol. Various concentrations of test compounds (50 μl), human ICE solution (50 μl) and various concentrations of substrate (Ac-Tyr-Val-Ala-Asp-MCA) were mixed and incubated at 37° C. Fluorescence intensity was measured at […].
In the aboved example method,
HEPES is 4-(2-Hydroxyethyl)-1-piperazineethane-sulfonic acid,
EDTA is Ethylenediamine tetraacetate, and
Ac-Tyr-Val-Ala-Asp-MCA is Acetyl-L-tyrosyl-L-valyl-L-alanyl-L-asparaginic acid 4-methyl-coumarinyl-7-amide.

IC50: 30 nM
Compound: CC(C)[C@H](NC(=O)CCc1ccccc1)C(=O)N[C@@H](C)C(=O)NC(CC(=O)O)C(=O)Cn1nnnc1Cc1c(Cl)cccc1Cl (stereo partly drawn) [Example 2(1), N-((N-(3-phenylpropionyl)-L-valyl)-L-alanyl)-3-amino-4-oxo-5-(5-(2,6-dichlorophenylmethyl)tetrazol-1-yl)pentanoic acid]

Source: US6376484B1, “Tetrazole compounds and pharmaceutical agents containing such derivative as an active ingredient” (Ono Pharmaceutical Co., Ltd., priority 1995, dated 2002)
